Key:
[1] = tested on: Apoe KO mouse atherosclerosis model; experiment: Atherosclerosis model: aortic plaque En-face staining and plaque area; format: in vivo, C57BL/6 Apoe KO mice; conditions: Apoe KO mice, high-fat diet; GEN1-284s 60 mpk QD oral
Protocol: (§1) Method: Apoe KO mice were tested for basal blood lipid levels and divided into a normal control group and a high-fat group. After 8 weeks of housing, the mice from the high-fat group were divided into 4 groups of about 8: a normal diet group (Chow), a high-fat diet model group (HFD), an Atorvastatin positive group (HFD+atorvastatin 5 mpk, QD), and a GEN1-284s group (284-60 mpk, QD). Oral administration was performed for 8 consecutive weeks, and the effect of the compound on the following indicators in Apoe KO mice was observed: 4 blood lipid tests (TC, TG, HDL-C and LDL-C), aortic plaque En-face staining, and pathological oil red staining of the cardiac outflow tract.
(§2) Mice from the groups except for the normal diet control group (Chow) were fed with high-fat feed every day for […]. From week 9, each group was orally administered solvent or a corresponding test compound, and body weight data were recorded every day for 8 consecutive weeks. After the first 8 weeks' high-fat diet, blood samples were taken and centrifuged to separate serum, and the serum was tested for blood lipid levels (TCHO, TG, LDL-C and HDL-C). The mice were randomly grouped according to the TCHO results and body weight. During the subsequent 8 weeks of administration, blood lipid tests (TCHO, TG, LDL-C and HDL-C) were run once every 4 weeks.
At the end of the experiment, the mice were euthanized by CO2 inhalation, and their hearts and aortas (from the aortic arch to the iliac artery) were isolated. The isolated artery was dissected longitudinally from the aortic arch to the iliac artery, fixed in 4% paraformaldehyde for 30 min, synchronized with 60% isopropanol for 10 min, then stained in 60% oil red for 30 min, and then washed with 60% isopropanol 3 times for 5 min each time. Finally, the stained aorta was washed with deionized water and photographed. The proportion of red plaque areas was measured using Image Pro Plus 6.0 (Media Cybernetics, MD, US).

female BALB/c mice = experiment: Toxicity, multiple administrations for 14 days in mice; format: in vivo; conditions: female BALB/c mice
Protocol: • Part I: Single administration. A total of 6 mice were used. They were randomly divided into 2 groups: the vehicle control and GEN1-284s (1000 mg/kg), dosed once by oral gavage and observed for 6 days, and changes in body weight and activities were recorded. • Part II: Multiple administrations. This experiment used a total of 6 mice. They were divided into two groups of 3: a GEN1-284s-1000 mg/kg group and a GEN1-284s-300 mg/kg group, and were intragastrically given GEN1-284s for 14 consecutive days at 200 μL each. The state and survival of the mice were observed every day, and their body weights were recorded. Two mice died 2 h after GEN1-284s-1000 mg/kg administration. The dose was changed to 600 mg/kg, and the experiment was continued.
This experiment used a total of 6 mice. They were divided into two groups of 3: a GEN1-284s-1000 mg/kg group and a GEN1-284s-300 mg/kg group, and were intragastrically given GEN1-284s for 14 consecutive days at 200 μL each. The state and survival of the mice were observed every day, and their body weights were recorded. Two mice died 2 h after GEN1-284s-1000 mg/kg administration. The dose was changed to 600 mg/kg, and the experiment was continued.
Each mouse was intragastrically administered GEN1-284s for 14 consecutive days in a volume of 200 μL/20 g. The state and survival of the mice were observed every day, and their body weights were recorded. Two mice died 2 h after GEN1-284s-1000 mg/kg administration. The dose was changed to 600 mg/kg, and the experiment was continued.
Changes in body weight and survival of the mice were observed during 6 days after the single administration, and changes in body weight and the survival of the mice were observed during 14 consecutive days of high-dose GEN1-284s administration.

[2] = tested on: Apoe KO mouse atherosclerosis model; experiment: Atherosclerosis model: plaques in the cardiac (left ventricular) outflow tract; format: in vivo, C57BL/6 Apoe KO mice; conditions: Apoe KO mice, high-fat diet; GEN1-284s 60 mpk QD oral
Protocol: as §1, §2
Mouse heart samples were fixed overnight in 4% paraformaldehyde solution and dehydrated in sucrose solution. Then, the samples were embedded with OCT (Sakura, Japan) under a stereo microscope and made into 10 μm frozen sections. The sections were stained with oil red ORO and then subjected to routine pathological examinations. Images of the outflow tract were acquired under an optical microscope at 4× magnification, and high-quality morphological observations were carried out using an eyepiece with 20× magnification. The percentage of intimal lesions in the cardiac outflow tract was calculated. The detection criteria followed the criteria for histological classification of human atherosclerotic disease, which are described in detail below:
The area of plaques in the left ventricular outflow tract was measured using a microscope, and the proportion of plaques in the left ventricular outflow tract was calculated; this value reflects the degree of stenosis in the cardiac outflow tract vessel.

[3] = 300 mg/kg intragastric for 14 consecutive days

SMILES: O=C(Cc1ccc2ncccc2c1)N1CCC(n2c(=O)n(COP(=O)([O-])[O-])c3cccc(C(F)(F)F)c32)CC1.[Na+].[Na+] [GEN1-284 salt, (2-Oxo-3-(1-(2-(quinolin-6-yl)acetyl)piperidin-4-yl)-4-(trifluoromethyl)-2,3-dihydro-1H-benzo[d]imidazol-1-yl)methyl disodium phosphate]
- Formation of atherosclerotic plaques [1]: significantly reduced the formation of atherosclerotic plaques
- Change in body weight (female BALB/c mice; [3]): no significant change in body weight
- Survival (female BALB/c mice; [3]): did not affect the survival of the mice
- Number of mice that died (female BALB/c mice; 600 mg/kg group, Day 4): 1 mouse
- Number of mice that died 2 h after administration (female BALB/c mice; 1000 mg/kg intragastric, day 1, group of 3): 2 mice
- Time within which all mice died (female BALB/c mice; continuous administration of 600 mg/kg): ≤ 5 days
- Left ventricular outflow tract plaques [2]: a certain ameliorating effect on outflow tract plaques

From US20240391940A1, “FUSED RING-CONTAINING COMPOUND, APPLICATION THEREOF, AND COMPOSITION CONTAINING SAME” (GenEros Biopharma Ltd., priority 2020, published 2024)
